Measured values reported in patent US20080103189A1, “PREPARATION AND UTILITY OF SUBSTITUTED INDOLES” (Auspex Pharmaceuticals, Inc., priority 2006, published 2008).

Settings: topical or ocular, 5 microgram per mL
Protocol: Liver microsomal stability assays were conducted at 1 mg per mL liver microsome protein with an NADPH-generating system in 2% NaHCO3 (2.2 mM NADPH, 25.6 mM glucose 6-phosphate, 6 units per mL glucose 6-phosphate dehydrogenase and 3.3 mM MgCl2). Test compounds were prepared as solutions in 20% acetonitrile-water and added to the assay mixture (final assay concentration 5 microgram per mL) and incubated at 37° C. Final concentration of acetonitrile in the assay were <1%. Aliquots (50 μL) were taken out at times 0, 15, 30, 45, and 60 minutes, and diluted with ice cold acetonitrile (200 μL) to stop the reactions. Samples were centrifuged at 12000 RPM for 10 minutes to precipitate proteins. Supernatants were transferred to microcentrifuge tubes and stored for LC/MS/MS analysis of the degradation half-life of the test compounds.

In the case of `[2H]C([2H])(Cc1c[nH]c2ccc(CS(=O)(=O)N3CCCC3)cc12)N(C)C`, the “increase in the degradation half-life as compared to the non-isotopically enriched drug” value is reported as 20-250%.
